{"source": "patent US20170290882A1", "about": "“Specific Combined Therapy of Malignant Tumors with a Cytostatic and Its Modifier” (priority 2015, published 2017)", "key": {"B16 melanoma": {"test_system": "B16 melanoma", "test": "Binary therapy DDP+GMDP-A in the B16 melanoma model", "type": "in vivo, BDF1 mice", "conditions": "for Tumor volume / tumor growth inhibition (TGI) / Average life time / ILT (increase of the animal life time) / Metastasis MF (tumor metastasis frequency) / Metastasis MI (metastasis inhibition rate): DDP, if given, single 4 mg/kg i.v."}, "[1]": {"conditions": "at assumed therapeutic dose and at its five-fold excess; cited from earlier work"}, "[2]": {"test_system": "P388 lymphoplastic leukemia", "test": "Combined therapy DDP+GMDP-A in the P388 lymphoplastic leukemia model", "type": "in vivo, mice BDF1", "conditions": "day 7; early start (1st day); 5-fold GMDP-A 3.75 mg/kg s.c.; DDP, if given, single 4 mg/kg i.v."}, "[3]": {"conditions": "day 7, early start (1st day), 5-fold GMDP-A 3.75 mg/kg s.c."}, "[4]": {"conditions": "day 7, early start (1st day), 10-fold GMDP-A 3.75 mg/kg s.c."}, "[5]": {"conditions": "day 9, early start (1st day), 5-fold GMDP-A 3.75 mg/kg s.c."}, "[6]": {"conditions": "day 9, early start (1st day), 10-fold GMDP-A 3.75 mg/kg s.c."}, "[7]": {"conditions": "day 9, late start (5th day), 5-fold GMDP-A 3.75 mg/kg s.c."}, "[8]": {"conditions": "day 9, late start (5th day), 10-fold GMDP-A 3.75 mg/kg s.c."}, "[9]": {"conditions": "day 12, early start (1st day), 5-fold GMDP-A 3.75 mg/kg s.c."}, "[10]": {"conditions": "day 12, early start (1st day), 10-fold GMDP-A 3.75 mg/kg s.c."}, "[11]": {"conditions": "day 12, late start (5th day), 5-fold GMDP-A 3.75 mg/kg s.c."}, "[12]": {"conditions": "day 12, late start (5th day), 10-fold GMDP-A 3.75 mg/kg s.c."}, "[13]": {"conditions": "day 14, early start (1st day), 5-fold GMDP-A 3.75 mg/kg s.c."}, "[14]": {"conditions": "day 14, early start (1st day), 10-fold GMDP-A 3.75 mg/kg s.c."}, "[15]": {"conditions": "day 14, late start (5th day), 5-fold GMDP-A 3.75 mg/kg s.c."}, "[16]": {"conditions": "day 14, late start (5th day), 10-fold GMDP-A 3.75 mg/kg s.c."}, "[17]": {"conditions": "day 16, early start (1st day), 5-fold GMDP-A 3.75 mg/kg s.c."}, "[18]": {"conditions": "day 16, early start (1st day), 10-fold GMDP-A 3.75 mg/kg s.c."}, "[19]": {"conditions": "day 16, late start (5th day), 5-fold GMDP-A 3.75 mg/kg s.c."}, "[20]": {"conditions": "day 16, late start (5th day), 10-fold GMDP-A 3.75 mg/kg s.c."}, "[21]": {"conditions": "day 19, early start (1st day), 5-fold GMDP-A 3.75 mg/kg s.c."}, "[22]": {"conditions": "day 19, early start (1st day), 10-fold GMDP-A 3.75 mg/kg s.c."}, "[23]": {"conditions": "day 19, late start (5th day), 5-fold GMDP-A 3.75 mg/kg s.c."}, "[24]": {"conditions": "day 19, late start (5th day), 10-fold GMDP-A 3.75 mg/kg s.c."}, "[25]": {"conditions": "early start (1st day), 5-fold GMDP-A 3.75 mg/kg s.c."}, "[26]": {"conditions": "early start (1st day), 10-fold GMDP-A 3.75 mg/kg s.c."}, "[27]": {"conditions": "late start (5th day), 5-fold GMDP-A 3.75 mg/kg s.c."}, "[28]": {"conditions": "late start (5th day), 10-fold GMDP-A 3.75 mg/kg s.c."}}}
{"compound": "CC(=O)NC1C(OC2C(CO)OC(O)C(NC(C)=O)C2OC(C)C(=O)NC(C)C(=O)NC(CCC(=O)O)C(=O)O)OC(CO)C(O)C1O", "note": "[GMDP-A, N-acetyl-D-glucosaminyl-β-(1-4)-N-acetylmuramyl-L-alanyl-D-glutamic acid]", "values": [{"measurement": "Tumor volume", "setting": "B16 melanoma; [3]", "value": "11 ± 6", "unit": "mm^3"}, {"measurement": "tumor growth inhibition (TGI)", "setting": "B16 melanoma; [3]", "value": 71, "unit": "%"}, {"measurement": "Tumor volume", "setting": "B16 melanoma; [4]", "value": "15 ± 6", "unit": "mm^3"}, {"measurement": "tumor growth inhibition (TGI)", "setting": "B16 melanoma; [4]", "value": 62, "unit": "%"}, {"measurement": "Tumor volume", "setting": "B16 melanoma; [5]", "value": "58 ± 11", "unit": "mm^3"}, {"measurement": "tumor growth inhibition (TGI)", "setting": "B16 melanoma; [5]", "value": 51, "unit": "%"}, {"measurement": "Tumor volume", "setting": "B16 melanoma; [6]", "value": "56 ± 9", "unit": "mm^3"}, {"measurement": "tumor growth inhibition (TGI)", "setting": "B16 melanoma; [6]", "value": 52, "unit": "%"}, {"measurement": "Tumor volume", "setting": "B16 melanoma; [7]", "value": "61 ± 9", "unit": "mm^3"}, {"measurement": "tumor growth inhibition (TGI)", "setting": "B16 melanoma; [7]", "value": 48, "unit": "%"}, {"measurement": "Tumor volume", "setting": "B16 melanoma; [8]", "value": "66 ± 14", "unit": "mm^3"}, {"measurement": "tumor growth inhibition (TGI)", "setting": "B16 melanoma; [8]", "value": 44, "unit": "%"}, {"measurement": "Tumor volume", "setting": "B16 melanoma; [9]", "value": "177 ± 33", "unit": "mm^3"}, {"measurement": "tumor growth inhibition (TGI)", "setting": "B16 melanoma; [9]", "value": 33, "unit": "%"}, {"measurement": "Tumor volume", "setting": "B16 melanoma; [10]", "value": "162 ± 21", "unit": "mm^3"}, {"measurement": "tumor growth inhibition (TGI)", "setting": "B16 melanoma; [10]", "value": 38, "unit": "%"}, {"measurement": "Tumor volume", "setting": "B16 melanoma; [11]", "value": "173 ± 17", "unit": "mm^3"}, {"measurement": "tumor growth inhibition (TGI)", "setting": "B16 melanoma; [11]", "value": 34, "unit": "%"}, {"measurement": "Tumor volume", "setting": "B16 melanoma; [12]", "value": "164 ± 29", "unit": "mm^3"}, {"measurement": "tumor growth inhibition (TGI)", "setting": "B16 melanoma; [12]", "value": 37, "unit": "%"}, {"measurement": "Tumor volume", "setting": "B16 melanoma; [13]", "value": "347 ± 47", "unit": "mm^3"}, {"measurement": "tumor growth inhibition (TGI)", "setting": "B16 melanoma; [13]", "value": 8, "unit": "%"}, {"measurement": "Tumor volume", "setting": "B16 melanoma; [14]", "value": "298 ± 44", "unit": "mm^3"}, {"measurement": "tumor growth inhibition (TGI)", "setting": "B16 melanoma; [14]", "value": 21, "unit": "%"}, {"measurement": "Tumor volume", "setting": "B16 melanoma; [15]", "value": "329 ± 41", "unit": "mm^3"}, {"measurement": "tumor growth inhibition (TGI)", "setting": "B16 melanoma; [15]", "value": 13, "unit": "%"}, {"measurement": "Tumor volume", "setting": "B16 melanoma; [16]", "value": "269 ± 62", "unit": "mm^3"}, {"measurement": "tumor growth inhibition (TGI)", "setting": "B16 melanoma; [16]", "value": 29, "unit": "%"}, {"measurement": "Tumor volume", "setting": "B16 melanoma; [17]", "value": "522 ± 82", "unit": "mm^3"}, {"measurement": "tumor growth inhibition (TGI)", "setting": "B16 melanoma; [17]", "value": 6, "unit": "%"}, {"measurement": "Tumor volume", "setting": "B16 melanoma; [18]", "value": "446 ± 53", "unit": "mm^3"}, {"measurement": "tumor growth inhibition (TGI)", "setting": "B16 melanoma; [18]", "value": 20, "unit": "%"}, {"measurement": "Tumor volume", "setting": "B16 melanoma; [19]", "value": "391 ± 67", "unit": "mm^3"}, {"measurement": "tumor growth inhibition (TGI)", "setting": "B16 melanoma; [19]", "value": 30, "unit": "%"}, {"measurement": "Tumor volume", "setting": "B16 melanoma; [20]", "value": "408 ± 79", "unit": "mm^3"}, {"measurement": "tumor growth inhibition (TGI)", "setting": "B16 melanoma; [20]", "value": 27, "unit": "%"}, {"measurement": "Tumor volume", "setting": "B16 melanoma; [21]", "value": "690 ± 208", "unit": "mm^3"}, {"measurement": "tumor growth inhibition (TGI)", "setting": "B16 melanoma; [21]", "value": 10, "unit": "%"}, {"measurement": "Tumor volume", "setting": "B16 melanoma; [22]", "value": "894 ± 99", "unit": "mm^3"}, {"measurement": "tumor growth inhibition (TGI)", "setting": "B16 melanoma; [22]", "value": 16, "unit": "%"}, {"measurement": "Tumor volume", "setting": "B16 melanoma; [23]", "value": "817 ± 234", "unit": "mm^3"}, {"measurement": "tumor growth inhibition (TGI)", "setting": "B16 melanoma; [23]", "value": 23, "unit": "%"}, {"measurement": "Tumor volume", "setting": "B16 melanoma; [24]", "value": "882 ± 238", "unit": "mm^3"}, {"measurement": "tumor growth inhibition (TGI)", "setting": "B16 melanoma; [24]", "value": 17, "unit": "%"}, {"measurement": "Average life time", "setting": "B16 melanoma; [25]", "value": "21 ± 4", "unit": "days"}, {"measurement": "ILT (increase of the animal life time)", "setting": "B16 melanoma; [25]", "value": 0, "unit": "%"}, {"measurement": "Metastasis MF (tumor metastasis frequency)", "setting": "B16 melanoma; [25]", "value": 80, "unit": "%"}, {"measurement": "Metastasis MI (metastasis inhibition rate)", "setting": "B16 melanoma; [25]", "value": 29, "unit": "%"}, {"measurement": "Average life time", "setting": "B16 melanoma; [26]", "value": "27 ± 4", "unit": "days"}, {"measurement": "ILT (increase of the animal life time)", "setting": "B16 melanoma; [26]", "value": 29, "unit": "%"}, {"measurement": "Metastasis MF (tumor metastasis frequency)", "setting": "B16 melanoma; [26]", "value": 40, "unit": "%"}, {"measurement": "Metastasis MI (metastasis inhibition rate)", "setting": "B16 melanoma; [26]", "value": 81, "unit": "%"}, {"measurement": "efficiency for individual use (without chemotherapy)", "setting": "B16 melanoma; example 2", "value": "did not reach a biologically significant level"}, {"measurement": "Average life time", "setting": "B16 melanoma; [27]", "value": "18 ± 3", "unit": "days"}, {"measurement": "ILT (increase of the animal life time)", "setting": "B16 melanoma; [27]", "value": 0, "unit": "%"}, {"measurement": "Metastasis MF (tumor metastasis frequency)", "setting": "B16 melanoma; [27]", "value": 100, "unit": "%"}, {"measurement": "Metastasis MI (metastasis inhibition rate)", "setting": "B16 melanoma; [27]", "value": 5, "unit": "%"}, {"measurement": "Average life time", "setting": "B16 melanoma; [28]", "value": "24 ± 4", "unit": "days"}, {"measurement": "ILT (increase of the animal life time)", "setting": "B16 melanoma; [28]", "value": 14, "unit": "%"}, {"measurement": "Metastasis MF (tumor metastasis frequency)", "setting": "B16 melanoma; [28]", "value": 100, "unit": "%"}, {"measurement": "Metastasis MI (metastasis inhibition rate)", "setting": "B16 melanoma; [28]", "value": 8, "unit": "%"}, {"measurement": "Toxic action (acute, chronic and specific toxicity)", "setting": "[1]", "value": "no toxic action"}, {"measurement": "Tumor volume", "setting": "[2]", "value": "45 ± 2", "unit": "mm^3"}, {"measurement": "tumor growth inhibition (TGI)", "setting": "[2]", "value": 51, "unit": "%"}]}
